Measured values taken from paper PMC3585750, “Modulation of TRP channels by resveratrol and other stilbenoids” (Molecular Pain, 2013).

Legend:
TRPA1 (mTRPA1) [1] = molecular target: T1, TRPA1 (mTRPA1) (Mus musculus, UniProt Q8BLA8); assay: whole-cell patch clamp, agonist concentration-response in transfected HEK293 cells; no current in untransfected cells; format: cell-based
TRPA1 (mTRPA1) [2] = molecular target: T1, TRPA1 (mTRPA1); assay: whole-cell patch clamp, inhibition of AITC-induced current in transfected HEK293 cells; format: cell-based

T1 sequence (Q8BLA8 whole entry): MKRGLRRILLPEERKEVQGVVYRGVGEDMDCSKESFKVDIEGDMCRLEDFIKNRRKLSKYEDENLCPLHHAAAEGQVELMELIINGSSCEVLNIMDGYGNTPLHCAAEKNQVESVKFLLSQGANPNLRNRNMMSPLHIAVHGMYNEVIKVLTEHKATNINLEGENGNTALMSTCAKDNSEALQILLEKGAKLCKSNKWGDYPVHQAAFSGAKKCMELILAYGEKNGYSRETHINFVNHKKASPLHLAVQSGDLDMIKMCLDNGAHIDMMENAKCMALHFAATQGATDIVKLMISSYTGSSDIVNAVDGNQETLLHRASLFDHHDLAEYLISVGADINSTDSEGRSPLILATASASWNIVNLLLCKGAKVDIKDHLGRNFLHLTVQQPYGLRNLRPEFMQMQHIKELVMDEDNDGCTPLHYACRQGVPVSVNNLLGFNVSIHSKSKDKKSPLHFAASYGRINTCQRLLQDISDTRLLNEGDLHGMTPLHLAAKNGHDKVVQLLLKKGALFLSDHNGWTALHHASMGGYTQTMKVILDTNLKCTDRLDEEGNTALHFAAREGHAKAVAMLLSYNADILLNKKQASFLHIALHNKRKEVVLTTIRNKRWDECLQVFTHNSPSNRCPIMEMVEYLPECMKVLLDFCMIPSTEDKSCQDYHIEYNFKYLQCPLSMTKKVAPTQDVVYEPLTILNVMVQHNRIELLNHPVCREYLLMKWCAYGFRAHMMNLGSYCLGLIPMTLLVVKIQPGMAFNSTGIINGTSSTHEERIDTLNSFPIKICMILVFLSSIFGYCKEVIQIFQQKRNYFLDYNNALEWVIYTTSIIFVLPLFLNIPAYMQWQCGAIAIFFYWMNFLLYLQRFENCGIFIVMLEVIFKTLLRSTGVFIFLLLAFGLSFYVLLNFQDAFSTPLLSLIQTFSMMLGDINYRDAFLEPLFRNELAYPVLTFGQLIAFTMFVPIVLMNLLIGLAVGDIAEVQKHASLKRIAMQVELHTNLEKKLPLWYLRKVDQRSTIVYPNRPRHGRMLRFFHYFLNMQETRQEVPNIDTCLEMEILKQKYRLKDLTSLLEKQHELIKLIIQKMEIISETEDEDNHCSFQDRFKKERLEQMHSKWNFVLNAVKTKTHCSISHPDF

With `C=CCN=C=S` [AITC, allyl isothiocyanate] as the compound, how does the EC50 (TRPA1 (mTRPA1) [1]) read?
The EC50 was 61.2 µM.

`Oc1ccc(/C=C/c2cc(O)cc(O)c2)cc1` [RES, 3,5,4’ - trihydroxy-trans-stilbene] was tested. Which IC50 (TRPA1 (mTRPA1) [2]) did it give?
The IC50 was about 0.75 µM.
